Measurements reported in ChEMBL document CHEMBL4354781, “Drug-resistance in Mycobacterium tuberculosis: where we stand” (2019).
Values after ≈ are worked out from the molar mass of the structure shown.

Experiments:
Format in all cases: functional
[1] = test system: Mycobacterium tuberculosis; assay: Antitubercular activity against Mycobacterium tuberculosis H37Rv ATCC 35837
[2] = test system: Mycobacterium tuberculosis; assay: Antitubercular activity against Mycobacterium tuberculosis H37Rv ATCC 35820
[3] = test system: Mycobacterium tuberculosis; assay: Antitubercular activity against Mycobacterium tuberculosis H37Rv ATCC 25618
[4] = test system: Mycobacterium tuberculosis; assay: Antitubercular activity against Mycobacterium tuberculosis H37Rv ATCC 35838
[5] = test system: Mycobacterium tuberculosis; assay: Antitubercular activity against Mycobacterium tuberculosis Kurono ATCC 35812
[6] = test system: Mycobacterium tuberculosis; assay: Antitubercular activity against Mycobacterium tuberculosis H37Rv ATCC 35822
[7] = test system: Mycobacterium tuberculosis; assay: Antitubercular activity against Mycobacterium tuberculosis XDR
[8] = test system: Mycobacterium tuberculosis; assay: Antitubercular activity against Mycobacterium tuberculosis by radiometric analysis

C[C@]1(COc2ccc(N3CCC(Oc4ccc(OC(F)(F)F)cc4)CC3)cc2)Cn2cc([N+](=O)[O-])nc2O1 [DELAMANID]
MIC [1]: 0.006 to 0.024 µg/mL (≈ 0.0112 to 0.0449 µM)
MIC [2]: 0.006 to 0.024 µg/mL (≈ 0.0112 to 0.0449 µM)
MIC [3]: 0.006 to 0.024 µg/mL (≈ 0.0112 to 0.0449 µM)
MIC [4]: 0.006 to 0.024 µg/mL (≈ 0.0112 to 0.0449 µM)
MIC [5]: 0.006 to 0.024 µg/mL (≈ 0.0112 to 0.0449 µM)
MIC [6]: 0.006 to 0.024 µg/mL (≈ 0.0112 to 0.0449 µM)

CC(=O)NC[C@H]1CN(c2ccc(N3CCOCC3)c(F)c2)C(=O)O1 [LINEZOLID]
MIC [7]: 0.125 to 0.5 µg/mL (≈ 0.371 to 1.48 µM)

O=[N+]([O-])c1cn2c(n1)OC[C@@H](OCc1ccc(OC(F)(F)F)cc1)C2 [PRETOMANID]
MIC [8]: 0.015 to 0.25 µg/mL (≈ 0.0418 to 0.696 µM)
